Data published in US8034810B2, “Arylsulfonamido-substituted hydroxamic acid derivatives” (Novartis AG, priority 1999, dated 2011).
Structures can show the parent of a compound that is named as a salt.

Assays:
[1] = target: T1, MMP9 (Homo sapiens, UniProt P14780); assay: Assay of MMP9, fluorogenic peptide substrate; assay type: biochemical; conditions: activated MMP9 from THP1 cells, 0.5 nM; substrate 25 μM
T1 construct: endogenous in cells; host or cells: THP1 human monocytic leukemia cells, TPA-stimulated; enzyme purified from culture medium
T1 sequence (P14780 107-707 limits assumed): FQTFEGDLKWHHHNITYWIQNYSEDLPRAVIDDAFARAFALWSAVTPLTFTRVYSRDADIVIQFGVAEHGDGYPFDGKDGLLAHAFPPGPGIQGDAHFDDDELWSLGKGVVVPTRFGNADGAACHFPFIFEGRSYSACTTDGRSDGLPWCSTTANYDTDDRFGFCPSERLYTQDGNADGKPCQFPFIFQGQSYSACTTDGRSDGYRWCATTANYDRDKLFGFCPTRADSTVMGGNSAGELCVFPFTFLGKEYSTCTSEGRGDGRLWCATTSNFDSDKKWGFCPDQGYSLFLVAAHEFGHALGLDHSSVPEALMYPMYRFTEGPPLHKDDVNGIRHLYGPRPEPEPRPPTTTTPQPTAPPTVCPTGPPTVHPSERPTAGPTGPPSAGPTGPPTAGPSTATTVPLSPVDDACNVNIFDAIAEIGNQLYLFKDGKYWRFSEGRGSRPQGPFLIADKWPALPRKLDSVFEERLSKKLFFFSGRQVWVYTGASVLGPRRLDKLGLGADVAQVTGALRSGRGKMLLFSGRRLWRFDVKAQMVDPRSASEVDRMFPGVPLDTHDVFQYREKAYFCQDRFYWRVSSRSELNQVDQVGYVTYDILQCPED
Description: MMP9 is prepared form the culture medium of THP1 human monocytic leukemia cells treated with TPA. THP1 cells are maintained in a culture of DMEM/F-12 with 10% FCS and stimulated to produce pro-MMP9 with TPA (1 nM) in serum-free medium for 48 h. All purification procedures are carried out at 4° C. The 1 liters of culture medium is concentrated to 100 ml by Centricon (Amicon) and applied to a column (1×8 cm) of gelatin-sepharose (Pharmacia) equilibrated with 50 mM Tris-Cl (pH=8.0), 300 mM NaCl. The fraction containing pro-MMP-9 is eluted with 10% DMSO in 50 mM Tris-Cl (pH=8.0), 300 mM NaCl, then dialyzed against 50 mM Tris-Cl (pH 7.5), 150 mM NaCl. The fraction is concentrated by Centricon and subjected to column chromatography of Sephadex G200 (2×20 cm) equilibrated with 50 mM Tris-Cl (pH=7.5) containing 150 mM NaCl. The purified Pro-MMP9 is stored at −80° C. as a stock and the necessary amount of pro-form is used for activation. Pro-MMP9 is activated with 1 mM aminophenyl mercury acetate (APMA, ICN Pharmaceuticals) in 50 mM Tris-Cl (pH=7.5) containing 150 mM NaCl, 10 mM CaCl2 and 0.05% Brij-35 (MMP Assay Buffer) for 18 h at 37° C., and the APMA is removed by extensive dialysis against MMP Assay Buffer. The activated MMP9 is stored frozen at −80° C. until use.
The activated MMP-9 (82 kDa) is then used to screen compounds. A fluorogenic peptide, 2-N-methylaminobenzoic acid (Nma)-Gly-Pro-Gln-Gly-Leu-Ala-Gly-Gln-Lys-N^ε-(2,4-dinitrophenyl)(Dnp)-NH2 (Peptide Institute, Osaka, Japan) is used as the only substrate in all MMPs assay in this study at 25 μM. Stock solutions of the substrate are prepared in 100% DMSO at a concentration 1.0 mM. Assays are performed in MMP Assay Buffer. The reaction mixture is added in duplicate to appropriate wells of a 96 well microfluor plate and preincubated at 37° for 30 min. The reaction is started by the addition of 0.5 nM of activated MMP9. Stock solutions of each inhibitor are prepared by dissolving in 100% DMSO. Inhibitors are added into the assay mixture from the diluted solution with 100% DMSO prepared from the stock solutions. An equal volume of DMSO is added to controls. The final concentration of DMSO from inhibitor and substrate solutions is 5.0%. The increase of fluorescence is monitored at 460 nm with excitation at 355 nm. A time point on a linear part of the curve is chosen to determine the activity. The inhibition results are expressed as the inhibitor concentration that produce 50% inhibition (IC50) of the activity in the control reaction.

[2] = system: EGFP transfected HT1080 cells; assay: Metastasis model with EGFP transfected HT1080 cells, lung fluorescence in nude mice; assay type: in vivo; conditions: tumor cells i.v., p.o. 60 mg/kg twice a day, lungs on day 17
Description: EGFP transfected HT1080: Nude mice were injected in the tail vein a suspension of tumor cells [2×10^6 cells/0.1 ml of PBS (phosphate buffered saline)]. Animals were dosed with compounds p.o. at −1 hr and +5 hrs relative to the time of the cell injection at the first day (day 0). After that the animals were dosed twice a day, firstly at 9-10:30 a.m. and secondly at 5:30-7:00 p.m. Compounds were administered as a suspension in 1% carboxymethyl cellulose (Wako, Japan) at a dose of 60 mg/kg twice a day. The vehicle alone was administered to the control group. On day 17, the lungs were removed from mice after sacrificing the animals. The removed lung tissues were divided into pieces of approximately 2-3 mm in diameter and then ca. 100 mg of tissues were suspended in 0.2 ml PBS in the microcentrifuge tubes followed by gentle homogenization and centrifugation. […] The fluorescence intensity was determined by using fluorescence plate reader (Cytoflour II) at the excitation and emission wavelength of 485 and 530 nm, respectively. The obtained fluorescence was normalized per lung using the wet lung weight. In this test a decrease in the fluorescence of 74% compared to the vehicle alone was determined for the compound of Example 68.

[3] = system: B16-F10 melanoma cells; assay: B16-F10 melanoma experimental metastasis model, lung tumor nodules; assay type: in vivo, BDF1 mice; conditions: mice, tumor cells i.v.; p.o. 120 mg/kg/dosing; lungs on day 14
Description: The B16-F10 melanoma experimental metastasis model was studied following the method of Fidler. Cells were harvested by trypsinization and washed once with serum-containing medium and three times with cold PBS and then kept on ice. Mice were injected in the tail vein with a suspension of tumor cells (2×10^5 cells/0.1 ml of PBS). Animals were dosed with compounds p.o. at −1 hr, +5 hrs, 23 hrs and 29 hrs relative to the time of the cell injection at the first two days (day 0, 1). After that the animals were dosed once a day in the morning. Compounds were administered as a suspension in 1% carboxymethyl cellulose (Wako, Japan) at a dose of 120 mg/kg/dosing. Vehicle alone was administered to the control group. On day 14, the lung of the mice were removed after sacrificing the animals and the numbers of the tumor nodules were counted manually after fixing with Bouin's solution (2% picric acid in destilled water:10% formaldehyde neutral buffer solution:acetic acid=15:5:1). In this test a decrease in the number of tumor nodules of 47% compared to the vehicle alone was determined for the compound of Example 68.

| Molecule | IC50 [1] [nM] | decrease in the fluorescence compared to the vehicle alone [2] [%] | decrease in the number of tumor nodules compared to the vehicle alone [3] [%] |
| --- | --- | --- | --- |
| C=CCCOc1ccc(S(=O)(=O)N(CC(=O)NO)Cc2cccc(F)n2)cc1 [Example 83a, 2-([4-But-3-enyloxy-benzenesulfonyl]-(6-fluoro-pyridine-2-yl)methyl-amino)-N-hydroxyacetamide] | 5.6 | – | – |
| C=CCCOc1ccc(S(=O)(=O)N(CC(=O)NO)Cc2ccc(-n3cncn3)cc2)cc1 [Example 79, 2-[(4-but-3-enyloxy-benzenesulfonyl)-(4-[1,2,4]triazol-1-yl-benzyl)-amino]-N-hydroxy-acetamide-hydrochloride salt] | 0.2 | – | – |
| COc1ccc(CN(CC(=O)NO)S(=O)(=O)c2ccc(OCCCCl)cc2)cc1 [Example 68, 2-{[4-(3-chloro-propoxy)-benzenesulfonyl]-(4-methoxy-benzyl)amino}-N-hydroxy-acetamide] | 1.2 | 74 | 47 |
| C=CCCOc1ccc(S(=O)(=O)N(CC(=O)NO)Cc2ccc(N3CCCC3)cc2)cc1 [Example 84a, 2-[(4-But-3-enyloxy-benzenesulfonyl)-(4-(pyrrolidin-1-yl)-benzyl)-amino]-N-hydroxyacetamide-hydrochloride] | 19.8 | – | – |
| C=CCCOc1ccc(S(=O)(=O)N(CC(=O)NO)Cc2ccc(N3CCOCC3)cc2)cc1 [Example 81, 2-[(4-But-3-enyloxy-benzenesulfonyl)-(4-morpholin-4-yl-benzyl)-amino]-N-hydroxy-acetamide-hydrochloride] | 6.3 | – | – |
| O=C(CN(Cc1ccc(-n2cncn2)cc1)S(=O)(=O)c1ccc(OCc2ccoc2)cc1)NO [Example 82c] | 7.4 | – | – |
| C=CCCOc1ccc(S(=O)(=O)N(CC(=O)NO)Cc2ccc(-n3ccnc3)cc2)cc1 [Example 80, 2-[(4-But-3-enyloxy-benzenesulfonyl)-(4-imidazol-1-yl-benzyl)-amino]-N-hydroxy-acetamide-hydrochloride] | 3.7 | – | – |
| 2-[(Cyclopropylmethoxy-benzenesulfonyl)-(4-[1,2,4]triazol-1-yl-benzyl)-amino]-N-hydroxyacetamide-hydrochloride salt [Example 82b] | 10.6 | – | – |
| O=C(CN(Cc1ccc(-n2cncn2)cc1)S(=O)(=O)c1ccc(OCCC2CC2)cc1)NO [Example 82a] | 17 | – | – |
